Data from patent publication US20240041042A1, “1-(PYRIDYL)-5-AZINYLPYRAZOLE DERIVATIVES, AND THEIR USE FOR CONTROL OF UNDESIRED PLANT GROWTH” (Bayer Aktiengesellschaft, priority 2020, published 2024).
Where two headings read alike, the source gives them in different places.

How the values were obtained:
Assay type in all cases: in vivo
[1] = tested on: Matricaria inodora (MATIN); experiment: Pre-emergence herbicidal action against MATIN; details: dosage 320 g/ha
Procedure, shortened: (§1)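 Application rates ran to 320 g/ha or lower, with several dosages tested on the same weeds. The compound, as wettable powder or emulsion concentrate, is sprayed pre-emergence onto soil over sown seeds; greenhouse growth follows, and effect is rated visually after roughly 3 weeks.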

[2] = tested on: Triticum aestivum (TRZAS); details: crop plant compatibility, 20 g/ha, effect vs untreated controls
Procedure, shortened: (§2)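 Visual rating (% effect vs. untreated plants; 100% = plant death) made about 3 weeks after treatment. Plants had been sprayed at one-leaf stage, 2–3 weeks post-sowing, with aqueous WP/EC preparations containing 0.5% additive, 600 l/ha water volume; a, b, c mark dose levels.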

[3] = tested on: Oryza sativa (ORYSA); details: crop plant compatibility
Procedure, shortened: as §2

[4] = tested on: Digitaria sanguinalis (DIGSA); experiment: Pre-emergence herbicidal action against DIGSA; details: dosage 320 g/ha
Procedure, shortened: as §1

[5] = tested on: Setaria viridis (SETVI); experiment: Pre-emergence herbicidal action against SETVI; details: dosage 320 g/ha
Procedure, shortened: as §1

[6] = tested on: Echinochloa crus-galli (ECHCG); experiment: Post-emergence herbicidal action against ECHCG; details: dosage 80 g/ha
Procedure, shortened: (§3)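 Rates were 320 g/ha or below, applied as aqueous WP/EC spray with 0.5% additive (600 l/ha) onto one-leaf-stage plants. About 3 weeks later in the greenhouse, damage was scored visually against untreated plants on a 0–100% scale, where 100% means plants died.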

[7] = tested on: Abutilon theophrasti (ABUTH); experiment: Post-emergence herbicidal action against ABUTH; details: 80 g/ha, visual rating about 3 weeks after treatment vs untreated controls (100% = plants have died, 0% = like control plants)
Procedure, shortened: as §3

[8] = tested on: Matricaria inodora (MATIN); experiment: Post-emergence herbicidal action against MATIN; details: dosage 80 g/ha
Procedure, shortened: as §3

[9] = tested on: Alopecurus myosuroides (ALOMY); experiment: Pre-emergence herbicidal action against ALOMY; details: 320 g/ha; scored visually after about 3 weeks; 100% = plants have died
Procedure, shortened: as §1

[10] = tested on: Glycine max (GLXMA); experiment: Post-emergence crop plant compatibility, GLXMA; details: post-emergence, 20 g/ha, effect in comparison to untreated controls
Description: Seeds of monocotyledonous and dicotyledonous weeds and crop plants are placed in sandy loam in plastic or organic planting pots, covered with soil and cultivated in a greenhouse under controlled growth conditions. 2 to 3 weeks after sowing, the test plants are treated at the one-leaf stage. The compounds of the invention, formulated in the form of wettable powders (WP) or as emulsion concentrates (EC), are then sprayed onto the green parts of the plants as aqueous suspension or emulsion with addition of 0.5% additive at a water application rate of 600 l/ha (converted). After the test plants have been kept in the greenhouse under optimum growth conditions for about 3 weeks, the activity of the preparations is rated visually in comparison to untreated controls. For example, 100% activity=the plants have died, 0% activity=like control plants.
The observed effects on selected crop plants are reported here in comparison to the untreated controls (values in %). The appendices “a”, “b” and “c” give differentiation by dosage used with otherwise the same crop plants tested.

[11] = tested on: Amaranthus retroflexus (AMARE); experiment: Pre-emergence herbicidal action against AMARE; details: 320 g/ha, visual scoring after about 3 weeks vs untreated controls
Procedure, shortened: as §1

[12] = tested on: Setaria viridis (SETVI); experiment: Post-emergence herbicidal action against SETVI; details: dosage 80 g/ha
Procedure, shortened: as §3

[13] = tested on: Pharbitis purpurea (PHBPU); experiment: Pre-emergence herbicidal action against PHBPU; details: dosage 320 g/ha
Procedure, shortened: as §1

[14] = tested on: Alopecurus myosuroides (ALOMY); experiment: Post-emergence herbicidal action against ALOMY; details: 80 g/ha, visual rating about 3 weeks after treatment vs untreated controls (100% = plants have died, 0% = like control plants)
Procedure, shortened: as §3

[15] = tested on: Viola tricolor (VIOTR); experiment: Pre-emergence herbicidal action against VIOTR; details: 320 g/ha, Viola tricolor
Procedure, shortened: as §1

[16] = tested on: Avena fatua (AVEFA); experiment: Post-emergence herbicidal action against AVEFA; details: 80 g/ha, visual rating about 3 weeks after treatment
Procedure, shortened: as §3

[17] = tested on: Pharbitis purpurea (PHBPU); experiment: Post-emergence herbicidal action against PHBPU; details: dosage 80 g/ha
Procedure, shortened: as §3

[18] = tested on: Echinochloa crus-galli (ECHCG); experiment: Pre-emergence herbicidal action against ECHCG; details: dosage 320 g/ha
Procedure, shortened: as §1

[19] = tested on: Lolium rigidum (LOLRI); experiment: Post-emergence herbicidal action against LOLRI; details: dosage 80 g/ha
Procedure, shortened: as §3

[20] = tested on: Triticum aestivum (TRZAS); details: pre-emergence, 80 g/ha, crop plant compatibility, in comparison to untreated controls
Procedure, shortened: (§4)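 Crop injury rated visually in percent against untreated plants roughly 3 weeks after treatment (0% no effect, 100% plants dead). Compounds, as WP or EC with 0.5% additive in 600 l/ha water, were applied to the covering soil right after sowing; greenhouse growth. Suffixes a, b, c denote different dosages.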

[21] = tested on: Zea mays (ZEAMX); details: pre-emergence, 80 g/ha, crop plant compatibility, in comparison to untreated controls
Procedure, shortened: as §4

[22] = tested on: Oryza sativa (ORYSA); details: pre-emergence, 80 g/ha, crop plant compatibility, in comparison to untreated controls
Procedure, shortened: as §4

[23] = tested on: Brassica napus (BRSNW); details: 80 g/ha, crop plant compatibility, in comparison to untreated controls
Procedure, shortened: as §4

[24] = tested on: Lolium rigidum (LOLRI); experiment: Pre-emergence herbicidal action against LOLRI; details: dosage 320 g/ha
Procedure, shortened: as §1

[25] = tested on: Polygonum convolvulus (POLCO); experiment: Pre-emergence herbicidal action against POLCO; details: dosage 320 g/ha
Procedure, shortened: as §1

CCOC(=O)CSc1nn(-c2ccccn2)c(-c2cncc(F)c2)c1Br [Example I-125]
Pre-emergence action against MATIN in % [1]: 90% | Post-emergence action against TRZAS in % [2]: 10% | Post-emergence action against ORYSA in % ([3]; 20 g/ha, effect vs untreated controls): 0% | Post-emergence action against ORYSA in % ([3]; 80 g/ha, effect in comparison to untreated controls): 0% | Pre-emergence action against DIGSA in % [4]: 100% | Pre-emergence action against SETVI in % [5]: 90% | Post-emergence action against ECHCG in % [6]: 90% | Post-emergence action against ABUTH in % [7]: 80% | Post-emergence action against MATIN in % [8]: 80% | Pre-emergence action against ALOMY [9]: 80% | Post-emergence action against GLXMA in % [10]: 20% | Pre-emergence action against AMARE in % [11]: 100% | Post-emergence action against SETVI in % [12]: 80% | Pre-emergence action against PHBPU in % [13]: 90% | Post-emergence action against ALOMY in % [14]: 90% | Pre-emergence action against VIOTR in % [15]: 90% | Post-emergence action against AVEFA in % [16]: 90% | Post-emergence action against PHBPU in % [17]: 80% | Pre-emergence action against ECHCG in % [18]: 80% | Post-emergence action against LOLRI in % [19]: 80% | Pre-emergence action against TRZAS in % [20]: 10% | Pre-emergence action against ZEAMX in % [21]: 10% | Pre-emergence action against ORYSA in % [22]: 10% | Pre-emergence action against BRSNW in % [23]: 20% | Pre-emergence action against LOLRI in % [24]: 80% | Pre-emergence action against POLCO in % [25]: 90%
